In this experiment the test system is classical complement pathway. The experiment can be described thus: In vitro haemolysis assay (inhibition of classical complement pathway). It is filed as cell-based, human. The note with it: human serum, sensitized sheep red blood cells; Table 3, given as upper bounds; read-out: IC50, inhibition of hemolysis. As for the experimental part:
The in vitro effect of the compounds of the present invention was assessed by measuring their inhibitory effect of the classical complement pathway in a haemolysis assay. Briefly, compounds of the present invention and reference compounds were dissolved in DMSO and diluted in Tris/Casein Assay Buffer (10 mM Tris, 145 mM NaCl, 0.5 mM MgCl2, 0.15 mM CaCl2), and 0.1% W/V Casein, adjusted to pH 7.4) as 9-point serial dilutions in a 96 well plate. Sensitized sheep red blood cells (RBC) coated with rabbit anti-sheep erythrocyte antiserum (Complement Technology, Inc., TX, USA) were washed in Tris/Casein Assay Buffer. […] from each well of diluted compound was added to a 96-well plate containing 50 μL diluted human serum (Complement Technology, Inc., TX, USA) and incubated for 15 minutes at room temperature. The serum dilution factor was optimized for every serum batch to obtain 70-90% of maximal haemolysis using the protocol. Then 50 μL sensitized sheep red blood cells were added to all wells (10^7 per well). After 30 minutes of incubation at 37 QC with gentle agitation, the reaction was stopped by addition of 50 μL Tris STOP Buffer per well (10 mM EDTA, 10 mM Tris, 145 mM NaCl adjusted to pH 7.4). The RBCs were then removed by centrifugation and the resulting supernatant measured for hemolysis by absorbance at 405 nm. […]

Turning to “Ac-IC(1)IWQDWGEHRC(1)TEG-K((15-carboxy-pentadecanoyl)-[(Piperazine-1-yl)-acetyl][Peg3][Peg3])-NH2 [Compound 95]”, the IC50 was less than 500 nM.

A word on the IC50: it is the concentration at which inhibition is half-maximal.

The record behind these values is patent US11965039B2, “Compstatin analogues and their medical uses” (priority 2018, dated 2024).
